Test results from ChEMBL document CHEMBL1141841, “Biotransformation of the trichoderma metabolite 6-n-pentyl-2H-pyran-2-one (6PAP) by selected fungal isolates” (J Nat Prod, 1999).
The source made the active and inactive calls. No cut-off for these calls is given here.

Test system: Botrytis cinerea
Assay: Antimicrobial activity against Botrytis cinerea by spore germination assay
Format: functional, organism-based

SMILES | Activity
CCCCCc1cccc(=O)o1 | Active
O=c1cccc(CCCCCO)o1 | inactive
CC(O)CCCc1cccc(=O)o1 (stereo not given) | inactive
O=C(O)CCc1cccc(=O)o1 | inactive
O=C(O)CCCCc1cccc(=O)o1 | inactive
